These results are taken from US6313180A, “Steroid compounds having contraceptive and anti-osteoporosis activity” (priority 1997, dated 2001).

Structures are written as SMILES.

A short description of test [1]: Allen Doisy test for estrogenic activity in vivo. As to conditions: oral administration; estrogenic activity; read-out: AllenDoisy ED50.
Test [2] is described as follows: McPhail test for progestagenic activity in vivo. The note with it: oral administration; progestagenic activity; read-out: McPhail ED50.
For test [3], the system named is human progesterone (P) receptor. Put plainly: Relative progesterone receptor binding affinity, cytoplasmic receptors of MCF-7 cells. As to conditions: relative to (16α)-16-ethyl-21-hydroxy-19-norpregn-4-ene-3,20-dione, 16 h, 4° C.
Test [4] concerns ovariectomised rats. Put plainly: Prevention of ovariectomy-induced bone loss in rats (anti-osteoporosis test, pQCT trabecular bone mineral density). Type of test: in vivo, rat (female Wistar). The note with it: Rattus norvegicus, 672 h; oral administration; ovariectomised rats, once or twice daily for 4 weeks; 40-60% proportional difference in trabecular bone mineral density; read-out: Osteoporosis ED50. The source says:
Ovariectomy induces in rats bone loss, which is due to oestrogen deficiency. Administration of oestrogenic compounds prevents this effect. The test is used to evaluate a compound for anti-osteoporotic activity in ovariectomised rats. The effect on bone mass can be evaluated by peripheral Quantitave Computed Tomography (pQCT) measurement of trabecular bone mineral density.
Mature virgin female Wistar rats preferentially, 225-250 g. Strain: Hsd/Cpd:Wu, SPF-bred by Harlan, CPB, Zeist, The Netherlands.
On day 1 of the experiment the rats are weighed and distributed over the cages in order of body weight. The rat with the lowest body weight in the first cage and the heaviest rat in the last cage. Treatments are randomized over the rats per block. A block (group of 3+n treatments) consists of 1 Intact placebo rat, 1 OVX placebo rat, 1 OVX reference rat and 1 rat of each n treatments.
Sham-operation and ovariectomy are performed under ether anaesthesia. After recovery from the anaesthesia, within 24 h, vehicle, reference compound or test compound is administered once or twice daily for 4 weeks.
Trabecular bone mineral density (mg/cm^3) of the metaphyseal part of the femur was measured with a pQCT (peripheral Quantitative Computed Tomography machine; XCT 960A, Stratec, Birkenfeld, Germany) directly after autopsy on fresh tissue. Two 360° scans, which have, due to the X-ray beam, a standard thickness of 1 mm were taken. The scans have a resolution of 0.148×0.148 mm. One scan was taken at 5.5 mm from the distal end of the femur, where trabecular bone mineral density of the metaphyseal part was measured. The other scan was taken in the diaphysis at 13.5 mm from the distal end, which contains no trabecular bone. In the latter scan cortical bone mineral density and the geometrical parameters, such as cortical thickness, total bone area, outer and inner diameter, were determined. Intra- and inter-assay variation for the measurement of trabecular bone mineral density in the distal femur were about 2-3%. The XCT-960A was calibrated with a standard of hydroxyapatite embedded in acrylic plastic.
Ovariectomy causes a statistically significant decrease in trabecular bone mineral density (P≤0.05, 2 way ANOVA).
The active dose (ED50) is the dose where a mean proportional difference in trabecular bone mineral density between 40 and 60% is reached as compared to the sham and ovariectomised group.
(§1) Several of the compounds according to the Examples I-VI, as well as other compounds according to the invention synthesized in analogous manner, were subjected to the tests described in the Examples VII and VIII. The results are described in the Table, in which the type of A-ring and the substitution at carbon atoms nos. 7, 11, and 17 is indicated. In the columns captioned E and P, the relative binding affinities for the estrogen and progesterone receptors are given; the ED50 results of the AllenDoisy and the McPhail tests have been indicated in μg/kg. In the column captioned "Osteoporosis", the ED50 results of the anti-osteoporosis test are given (dose in μg/kg, day, as described above).

For test [5], the target named is T1, human estradiol (E) receptor (Homo sapiens, UniProt P03372).
T1 construct: present in human breast tumor cells (MCF-7 cells); endogenous in cells; host or cells: MCF-7 human breast tumor cells
T1 sequence (P03372 1-595): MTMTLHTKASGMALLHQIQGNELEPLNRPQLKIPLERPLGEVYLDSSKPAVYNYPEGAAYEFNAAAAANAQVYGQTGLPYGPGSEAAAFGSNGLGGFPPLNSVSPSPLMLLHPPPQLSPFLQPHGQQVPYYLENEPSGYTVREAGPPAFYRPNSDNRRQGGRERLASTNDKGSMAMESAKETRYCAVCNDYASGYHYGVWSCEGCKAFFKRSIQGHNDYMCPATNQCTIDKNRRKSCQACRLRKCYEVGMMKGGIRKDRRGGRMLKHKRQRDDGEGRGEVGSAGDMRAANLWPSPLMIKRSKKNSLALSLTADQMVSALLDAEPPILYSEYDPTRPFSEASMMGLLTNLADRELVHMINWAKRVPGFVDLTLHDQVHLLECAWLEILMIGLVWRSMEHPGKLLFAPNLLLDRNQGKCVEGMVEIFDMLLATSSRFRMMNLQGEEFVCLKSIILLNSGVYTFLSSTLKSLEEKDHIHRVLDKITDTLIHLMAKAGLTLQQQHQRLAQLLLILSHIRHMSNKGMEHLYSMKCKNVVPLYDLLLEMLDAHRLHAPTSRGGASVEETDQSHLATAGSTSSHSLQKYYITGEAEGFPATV
Format: binding. The method, then: The relative estradiol receptor binding affinity was measured in the same manner as described above but using 17βestradiol as a reference.
as §1

With `CCC[C@@H]1Cc2cc(O)ccc2[C@H]2CC[C@@]3(C)[C@@H](C[C@H]4C[C@H](C)C[C@]43O)[C@H]12` [Code 38481, (4'S,7-alpha,16-beta, 17-beta)-3',4',5',16-tetrahydro-4'-methyl-7-propyl-17H-cyclopenta[16,17]estra-1,3,5(10)-trien-3,17-diol], the figures for the ED50 in test [1], in test [2] and in test [4] were 0.064 mg/kg, over 4 mg/kg and 0.125 mg/kg, respectively. Moreover, the “Relative binding affinity to the human progesterone (P) receptor” value in test [3] is reported as 6%. Besides, the “Relative binding affinity to the human estradiol (E) receptor” value in test [5] stood at 23%.
For `CCC[C@@H]1Cc2cc(O)ccc2[C@H]2CC[C@@]3(C)[C@@H](C[C@H]4C[C@@H](C)C[C@]43O)[C@H]12` [Code 38514], in that order: 0.024 mg/kg, over 2 mg/kg, under 0.032 mg/kg, 4% and 11%.
The like results for `CCC[C@@H]1Cc2cc(O)ccc2[C@H]2CC[C@@]3(C)[C@@H](C[C@H]4CCCC[C@]43O)[C@H]12` [Code 38515, (7-alpha,16-alpha,17-alpha)-7-propyl-16,24-cyclo-19,21-dinorchola-1,3,5(10)-trien-3,17-diol] were, in that order, 0.096 mg/kg, 4 mg/kg, 0.19 mg/kg, 10% and 16%.
